Reference: patent US20200371122A1, “BIOMARKER FOR SENESCENT CELLS” (Buck Institute for Research on Aging, priority 2017, published 2020)

What was measured:
Format in all cases: cell-based, human
SASP factors = test: qPCR of SASP and PTGS mRNAs in non-senescent cells treated with eicosanoids; conditions: 10 μM
Description: RNA was extracted from cells or tissues using commercially available kits (Isolate II—Bioline for cells; Direct-zol—Zymo for tissues) according to the manufacturer's instructions. cDNA synthesis was performed using a High Capacity cDNA Reverse Transcription Kit (Thermo Fisher) according to the manufacturer's instructions. Quantitative PCR was performed on a LightCycler 480 II (Roche) using primers and probes designed for the Universal Probe Library. Primers and probes used for human transcripts were ACTB: 5′-CCAACCGCGAGAAGATGA (SEQ ID NO:1), 5′-TCCATCACGATGCCAGTG (SEQ ID NO:2), Probe #64; TUBA: 5′-cttcgtctccgccatcag (SEQ ID NO:3), 5′-ttgccaatctggacacca (SEQ ID NO:4), Probe #58; ALOX5: 5′-[…] (SEQ ID NO:5), 5′-[…] (SEQ ID NO:6), Probe #64; ALOX5AP: 5′-ggtctgcggggctacttt (SEQ ID NO:7), 5′-[…] (SEQ ID NO:8), Probe #18; ALOX12: 5′-[…] (SEQ ID NO:9), 5′-agccaggtcgtcaggag (SEQ ID NO:10), Probe #32; ALOX15: 5′-[…] (SEQ ID NO:11), 5′-[…] (SEQ ID NO:12), Probe #76; ALOX15B: 5′-[…] (SEQ ID NO:13), 5′-actgggaggcgaagaagg (SEQ ID NO:14), Probe #51; AKR1C1: 5′-catgcctgtcctgggattt (SEQ ID NO:15), 5′-[…] (SEQ ID NO:16), Probe #49; AKR1C2: 5′-ctatgcgcctgcagaggt (SEQ ID NO:17), 5′-[…] (SEQ ID NO:18), Probe #31; AKR1C3: 5′-[…] (SEQ ID NO:19), 5′-[…] (SEQ ID NO:20), Probe #78; CYSLTR2: 5′-[…] (SEQ ID NO:21), 5′-[…] (SEQ ID NO:22), Probe #18; DPEP1: 5′-gacgtcctgaggctggtg (SEQ ID NO:23), 5′-[…] (SEQ ID NO:24), Probe #9 (SEQ ID NO:25), ELOVL2: 5′-[…] (SEQ ID NO:26), 5′-[…] (SEQ ID NO:27), Probe #53; ELOVL4: 5′-catttggcccatggattc (SEQ ID NO:28), 5′-[…] (SEQ ID NO:29), Probe #31; ELOVL5: 5′-cccttccatgcgtccata (SEQ ID NO:30), 5′-[…] (SEQ ID NO:31), Probe #31; EPHX2: 5′-ttctgctggacaccctgaa (SEQ ID NO:32), 5′-[…] (SEQ ID NO:33), Probe #45; GPX4: 5′-ttcccgtgtaaccagttcg (SEQ ID NO:34), 5′-[…] (SEQ ID NO:35), Probe #36; LTA4H: 5′-ctgctctcacggtccagtc (SEQ ID NO:36), 5′-[…] (SEQ ID NO:37), Probe #64; LTBR2: 5′-[…] (SEQ ID NO:38), 5′-[…] (SEQ ID NO:39), Probe #33; LTC4S: 5′-[…] (SEQ ID NO:40), 5′-[…] (SEQ ID NO:41), Probe #18; PTGDS: 5′-[…] (SEQ ID NO:42), 5′-[…] […]

IMR-90 fibroblasts = test: Induction of senescence in non-senescent cells by prostaglandins or 5-LOX pathway products (EdU, SA-B-gal, p21, immunoblot)
Description: RNA was extracted from cells or tissues using commercially available kits (Isolate II—Bioline for cells; Direct-zol—Zymo for tissues) according to the manufacturer's instructions. cDNA synthesis was performed using a High Capacity cDNA Reverse Transcription Kit (Thermo Fisher) according to the manufacturer's instructions. Quantitative PCR was performed on a LightCycler 480 II (Roche) using primers and probes designed for the Universal Probe Library. Primers and probes used for human transcripts were ACTB: 5′-CCAACCGCGAGAAGATGA (SEQ ID NO:1), 5′-TCCATCACGATGCCAGTG (SEQ ID NO:2), Probe #64; TUBA: 5′-cttcgtctccgccatcag (SEQ ID NO:3), 5′-ttgccaatctggacacca (SEQ ID NO:4), Probe #58; ALOX5: 5′-[…] (SEQ ID NO:5), 5′-[…] (SEQ ID NO:6), Probe #64; ALOX5AP: 5′-ggtctgcggggctacttt (SEQ ID NO:7), 5′-[…] (SEQ ID NO:8), Probe #18; ALOX12: 5′-[…] (SEQ ID NO:9), 5′-agccaggtcgtcaggag (SEQ ID NO:10), Probe #32; ALOX15: 5′-[…] (SEQ ID NO:11), 5′-[…] (SEQ ID NO:12), Probe #76; ALOX15B: 5′-[…] (SEQ ID NO:13), 5′-actgggaggcgaagaagg (SEQ ID NO:14), Probe #51; AKR1C1: 5′-catgcctgtcctgggattt (SEQ ID NO:15), 5′-[…] (SEQ ID NO:16), Probe #49; AKR1C2: 5′-ctatgcgcctgcagaggt (SEQ ID NO:17), 5′-[…] (SEQ ID NO:18), Probe #31; AKR1C3: 5′-[…] (SEQ ID NO:19), 5′-[…] (SEQ ID NO:20), Probe #78; CYSLTR2: 5′-[…] (SEQ ID NO:21), 5′-[…] (SEQ ID NO:22), Probe #18; DPEP1: 5′-gacgtcctgaggctggtg (SEQ ID NO:23), 5′-[…] (SEQ ID NO:24), Probe #9 (SEQ ID NO:25), ELOVL2: 5′-[…] (SEQ ID NO:26), 5′-[…] (SEQ ID NO:27), Probe #53; ELOVL4: 5′-catttggcccatggattc (SEQ ID NO:28), 5′-[…] (SEQ ID NO:29), Probe #31; ELOVL5: 5′-cccttccatgcgtccata (SEQ ID NO:30), 5′-[…] (SEQ ID NO:31), Probe #31; EPHX2: 5′-ttctgctggacaccctgaa (SEQ ID NO:32), 5′-[…] (SEQ ID NO:33), Probe #45; GPX4: 5′-ttcccgtgtaaccagttcg (SEQ ID NO:34), 5′-[…] (SEQ ID NO:35), Probe #36; LTA4H: 5′-ctgctctcacggtccagtc (SEQ ID NO:36), 5′-[…] (SEQ ID NO:37), Probe #64; LTBR2: 5′-[…] (SEQ ID NO:38), 5′-[…] (SEQ ID NO:39), Probe #33; LTC4S: 5′-[…] (SEQ ID NO:40), 5′-[…] (SEQ ID NO:41), Probe #18; PTGDS: 5′-[…] (SEQ ID NO:42), 5′-[…] (SEQ ID NO:43), Probe #36; PTGES: 5′-agagatgcctgcccacag (SEQ ID NO:44), 5′-tggccaccacgtacatctt (SEQ ID NO:45), Probe #4; PTGES2: 5′-[…] (SEQ ID NO:46), 5′-[…] (SEQ ID NO:47), Probe #49; PTGES3 (SEQ ID NO:48), 5′-[…] (SEQ ID NO:49), 5′-[…] (SEQ ID NO:50), Probe #48; PTGIS: 5′-[…] (SEQ ID NO:51), 5′-[…] (SEQ ID NO:52), Probe #45; PTGR1: 5′-atgatggggcagcaagtg (SEQ ID NO:53), 5′-cccatcagaaatggagtgc (SEQ ID NO:54), Probe #64; PTGS1: 5′-[…] (SEQ ID NO:55), 5′-gtggtggtccatgttcctg (SEQ ID NO:56), Probe #81; PTGS2: 5′-gatccccagggctcaaac (SEQ ID NO:57), 5′-[…] (SEQ ID NO:58), Probe #61; TBXAS1: 5′-[…] (SEQ ID NO:59), 5′-tgcctcccgtgtgaatct (SEQ ID NO:60), Probe #73; AREG: 5′-[…] (SEQ ID NO:61), 5′-[…] (SEQ ID NO:62), Probe #73; CCL2: 5′-AGTCTCTGCCGCCCTTCT (SEQ ID NO:63), 5′-GTGACTGGGGCATTGATTG (SEQ ID NO:64), Probe #40; CCL27: 5′-[…] (SEQ ID NO:65), 5′-gctgggtggcagtaggaat (SEQ ID NO:66), Probe #18; CXCL1: 5′-[…] (SEQ ID NO:67), 5′-[…] (SEQ ID NO:68), Probe #52; HGF: 5′-[…] (SEQ ID NO:69), 5′-[…] (SEQ ID NO:70), Probe #49; ILIA: 5′-[…] (SEQ ID NO:71), 5′-[…] (SEQ ID NO:72), Probe #6; IL1B: 5′-[…] (SEQ ID NO:73), 5′-[…] (SEQ ID NO:74), Probe #78; IL6: 5′-[…] (SEQ ID NO:75), 5′-gaaggcagcaggcaacac (SEQ ID NO:76), Probe #45; IL8: 5′-[…] (SEQ ID NO:77), 5′-atggttccttccggtggt (SEQ ID NO:78), Probe #72; IL10: 5′-[…] (SEQ ID NO:79), 5′-[…] (SEQ ID NO:80), Probe #67; MMP3: 5′-[…] (SEQ ID NO:81), 5′-[…] (SEQ ID NO:82), Probe #36; PDGFA: 5′-[…] (SEQ ID NO:83), 5′-[…] (SEQ ID NO:84), Probe #80; VEGF: 5′-[…] (SEQ ID NO:85), 5′-[…] (SEQ ID NO:86), Probe #50; P21WAF1(CDKN1A): 5′-[…]

[1] = system: IMR-90 fibroblasts depleted of p53 by shRNA; test: Prostaglandin treatment of p53-depleted (shp53) IMR-90 fibroblasts (Ki67, cleaved caspase 3); conditions: shp53 cells, 3 days
Description: For EdU labeling, cells were cultured with EdU (10 μM) for 24 h, fixed in 4% buffered formalin for 10 min, washed in PBS, and permeabilized in 0.5% Triton X-100 for 30 min. Cells were treated as instructed by the manufacturer Life Technologies Cat #C10337). For immunofluorescence, cells were blocked in 10% normal goat serum for 30 min, washed, and incubated overnight in antibodies to Ki67 (Abcam) or cleaved caspase 3 (Cell Signaling). Cell were then washed, incubated in fluorescent secondary antibodies, and mounted using vectashield mounting medium with DAPI.

IL-6 secretion = test: IL-6 ELISA on non-senescent cells treated with prostaglandins; conditions: 10 μM, 10 days
Description: Human fetal lung fibroblasts (IMR-90) were cultured in Dulbecco's modified eagle medium (DMEM) supplemented with 10% FBS and penicillin/streptomycin. LL 29 (AnHa) cells were obtained from the ATCC and growth to confluence using the ATCC protocol, but were subcultured as described for IMR-90 before initiation of all experiments. Quiescence was induced by replacing culture media with media containing 0.2% FBS. MCF-7 and MDA-MB-231 breast cancer cells were cultured in RPMI supplemented with 10% FBS and penicillin/streptomycin. All cells were cultured at 3% O2, and used between 25 and 40 population doublings. All cells were mycoplasma free.
3×10^4 cells in 12-well plates were treated as indicated in the text, and cultured in 0.5-1 ml serum-free DMEM for 24 hr. CM were collected and clarified at 2,000×g for 10 min. Supernatants were transferred to a tube; cells were trypsinized and counted. CM (2.5 μl) were analyzed by bead-based ELISAs (AlphaLISA, Perkin-Elmer) as instructed by the manufacturer and normalized to cell number.

| Structure (SMILES) | PTGES mRNA (SASP factors) | cell size and proliferation once prostaglandin was removed (IMR-90 fibroblasts; 10 μM 7 days, then 10 days release) | senescence-associated beta-galactosidase (IMR-90 fibroblasts; 10 μM, 10 days) | SASP factor mRNAs (SASP factors; for PGJ2 and 15d-PGJ2 most factors except VEGF and PDGF) | levels of LMNB1 and cellular HMGB1 (IMR-90 fibroblasts; 10 μM, 10 days) | p21 gene expression (IMR-90 fibroblasts; 10 μM, 10 days) | p21 protein accumulation (IMR-90 fibroblasts; 10 μM, 10 days, immunoblot) | p53 stabilization (IMR-90 fibroblasts; 10 μM, 10 days, immunoblot) | p53 phosphorylation or acetylation (IMR-90 fibroblasts; 10 μM, 10 days, western blot) | expression of MMP3 and secretion of IL-6 on removal of the prostaglandin (IMR-90 fibroblasts; release after 7 days at 10 μM) | apoptosis (positivity for cleaved caspase 3) [1] | continued cell division (Ki67 positivity) after loss of p53 [1] | IL-6 secretion (IL-6 secretion) |
| --- | --- | --- | --- | --- | --- | --- | --- | --- | --- | --- | --- | --- | --- |
| CCCCC[C@H](O)/C=C/[C@H]1[C@H](O)CC(=O)[C@@H]1C/C=C\CCCC(=O)O [PGE2, prostaglandin E2] | elevated | became smaller and resumed proliferation | induced | – | – | – | – | – | – | – | – | – | – |
| CCCCC[C@H](O)/C=C/[C@H]1C(=O)C=C[C@@H]1C/C=C\CCCC(=O)O [PGJ2] | – | – | induced | strongly induced | reduced levels | induced | induced | stabilized | without increasing | reduced | underwent apoptosis | did not allow | highest induction |
